Values of other authors as cited in US6444676B1, “Use of PARP inhibitors in the treatment of glaucoma” (priority 1999, dated 2002).

Tests used:
neuronal apoptosis = details: induced by various injuries including amino acid excitotoxicity
rat retina = details: at 3 mM or higher concentrations, administered via intracameral infusion

SMILES | prevention of neuronal apoptosis (neuronal apoptosis) | ischemia/reperfusion damage and DNA fragmentation in rat retina (rat retina)
Nc1cccc2c(=O)[nH][nH]c(=O)c12 [3-aminophtalhydrazide] | prevent neuronal apoptosis | 
NC(=O)c1cccc(N)c1 [3-aminobenzamide] | prevent neuronal apoptosis | reduce ischemia/reperfusion damage and DNA fragmentation
NC(=O)c1ccccc1 [benzamide] | prevent neuronal apoptosis | 
Oc1cccc2c(O)nccc12 [1,5-dihydroxyisoquinoline] | prevent neuronal apoptosis | 
